Data set [1] concerns Hepatitis B virus (HBV). The data set can be described thus: Anti-HBV assay in 2.2.15 cells (virion DNA, HBV RI). It is filed as cell-based. To be noted: 9 days; for EC90: 10 fold inhibition. On the procedure: The anti-HBV assays were performed according to the published protocol of Korba and Milman, (Korba, B. E.; Milman, G. Antiviral Res., 15, 217 1991), using cultures of 2.2.15 cells. In brief, the assay consisted of (a) seeding the chronically HBV-producing human liver cells (Acs et al. Proc. Nat. Acad. Sci., 84, 464 1987) into 24-well tissue culture plates, and growing to confluence, (b) adding test compounds daily for a continuous 9-day period, harvesting culture media after day 9 and (c) lysing treated cells 24 hours following day 9 of treatment for the analysis of extracellular virion DNA and intracellular HBV genomic forms.
Anti-HBV activity and the toxicity against confluent 2.2.15 cells were determined by the previously described procedure (Korba, B. E., et al. Antivir. Res., 19:55-70, 1992; Korba, B. E., et al. Antivir. Res., 15:217-228, 1991). Briefly, confluent cultures of HBV transfected 2.2.15 cells were maintained on either 96-well or 24-well flat-bottomed tissue culture plates in RPMI 1640 medium with 2% fetal bovine serum (FBS). The cells were treated with test compounds daily for nine consecutive days. The culture media were harvested on day 9 to quantify the amount of virion DNA. On day 10, the cells were lysed to quantify the amount of intracellular HBV replicative intermediates (RI). The quantification of virion DNA and the HBV RI were done by blot hybridization methods (Korba, B. E., et al. Antivir. Res., 19:55-70, 1992; Korba, B. E., et al. Antivir. Res., 15:217-228, 1991). Cellular toxicity against separate cultures of confluent 2.2.15 cells was measured after treatment with the compounds for nine days under identical culture conditions as those used for the antiviral assay (Korba, B. E., et al. Antivir. Res., 19:55-70, 1992). Uptake of neutral red dye by treated cells was compared with dye uptake by untreated control cells (Korba, B. E., et al. Antivir. Res., 19:55-70, 1992).

A short description of data set [2]: Neutral red uptake assay, stationary HFF cells. It is filed as cell-based. To be noted: human, read-out: Cytotoxicity (IC50), Neutral Red Uptake. As for the experimental part:
(B) Neutral Red Uptake Assay: Twenty-four hours prior to assay, HFF cells were plated into 96-well plates at a concentration of 2.5×10^4 cells/well. After 24 h, the media was aspirated, and […] of media containing drug was added to the first row of wells and then diluted serially 1:5 using the automated Cetus Liquid Handling System. The plates were then incubated in a Co2 incubator at 37° C. for 7 days. At this time the media/drug was removed, cells were washed, 200 μL/well of 0.01% neutral red in PBS was added, and the mixture was incubated for 1 h. The dye was removed, and the cells were washed using a Nunc Plate Washer. After the wash was removed, […] of 50% ethanol/1% aqueous acetic acid was added. The plates were placed on a rotating shaker for 15 min, and the optical densities were then read at 540 nm using a plate reader.
Data Analysis: Dose-response relationships were constructed by linearly regressing the percent inhibition of parameters derived in the preceding sections against log drug concentrations. Fifty-percent inhibitory (IC50) concentrations were calculated from the regression lines.

The test system of data set [3] is HCMV. The data set is described as follows: Cytopathic effect (CPE) inhibition assay, CMV in HFF cells. To be noted: for EC50: Human betaherpesvirus 5, HFF, 336 h, read-out: Antiviral Activity (EC50), anti-HCMV; for SI (Selectivity Index), Neutral Red Uptake: IC50 (neutral red, stationary HFF) divided by anti-HCMV EC50; for SI (Selectivity Index), HFF Cells: IC50 (rapidly growing HFF) divided by anti-HCMV EC50.
Procedure: Cytopathic Effect (CPE) Inhibition Assay: Low passage HFF cells were seeded into 96-well tissue culture plates 24 h prior to use at a cell concentration of 2.5×10^5 cells/mL in 0.1 mL of MEM supplemented with 10% FBS. The cells were incubated for 24 h at 37° C. in a CO2 incubator. After incubation, the medium was removed, and 100 μL of MEM containing 2% FBS was added to all but the first row. In the first row, 125 μL of experimental drug was added in triplicate wells. Medium alone was added to both cell and virus control wells. The drug in the first row of wells was then diluted serially 1:5 throughout the remaining wells by transferring 25 μL using the Cetus Liquid Handling Machine. After a 1 h incubation, 100 μL of the appropriate virus concentration was added to each well, excluding cell control wells which received 100 μL of MEM. The virus concentration added was 2500 pfu per well. The plates were then incubated at 37° C. in a CO2 incubator for 14 days. An additional 50 μL of MEM was added on day 7. After the incubation period, media was aspirated, and the cells were stained with a 5% crystal violet/ethanol/formaldehyde solution for 4 h. The stain was then removed, and the plates were rinsed with tap water until all excess stain was removed. The plates were allowed to dry for 24 h and then read on a Bio-Tek Instruments Microplate reader at 630 nm.

The nature of data set [4]: Cell proliferation assay, rapidly growing HFF cells. It is filed as cell-based. Particulars: human, rapidly growing human foreskin fibroblast (HFF) cells; for IC50 at 72 h: rapidly growing HFF cells, read-out: Cytotoxicity (IC50), HFF Cells. As for the experimental part: The toxicity of Compounds 14-1 and 14-2 was also measured in rapidly growing human foreskin fibroblast (HFF) cells and Daudi cells by cell proliferation assay (National Institute of Allergy and Infectious Diseases (NIAID), NIH, Bethesda, Md.). According to the assay method, the appropriate cells were seeded in six-well plates in MEM containing 10% FBS. Twenty four hours later, the cells were treated with several dilutions of the test compounds covering a range of 0.03-100 μg/ml. The plates were incubated in a CO2 incubator at 37° C. for 72h. The cells were washed after removing the media and subsequently released from the plate wells by the addition of 1 ml of 0.25% trypsin. The contents in the wells were mixed, diluted with Isotone III and counted using a Coulter counter. The CC50 values (concentration of compound giving 50% inhibition of cell proliferation) were calculated by linear regression analysis. Toxicity of Compound 14-1 was also evaluated in bone marrow precursor cells by previously published procedure (Sommadossi, J.-P., et al., Biochem. Pharmacol., 44:1921-1925, 1992).
(A) Cell Proliferation Assay: Twenty-four hours prior to assay, cells (HFF or Daudi) were seeded in six-well plates at a concentration of 2.5×10^4 cells per well in MEM containing 10% FBS. On the day of the assay, drugs were diluted serially in MEM containing 10% FBS at increments of 1:5 covering a range from […]. For drugs that had to be solubilized in DMSO, control wells receive MEM containing 10% DMSO. The media from the wells was then aspirated, and 2 mL of each drug concentration was added to each well. The cells were incubated in a CO2 incubator at 37° C. for 72 h. At the end of this time, the media-drug solution was removed, and the cells were washed. Trypsin-EDTA (0.25%, 1 mL) was added to each well and incubated until the cells started to come off the plate. The cell-media mixture was then pipeted up and down vigorously to break up the cell suspension and 0.2 mL of the mixture added to 9.8 mL of Isoton III and the cells were counted using a Coulter Counter. Each sample was counted three times with two replicate wells per sample. The IC50 values were calculated using a computer program.

Data set [5] concerns the target T1, rabbit liver guanase (Oryctolagus cuniculus, UniProt G1T386).
T1 construct: employing rabbit liver guanase; from tissue; host or cells: rabbit liver
T1 sequence (G1T386 1-454): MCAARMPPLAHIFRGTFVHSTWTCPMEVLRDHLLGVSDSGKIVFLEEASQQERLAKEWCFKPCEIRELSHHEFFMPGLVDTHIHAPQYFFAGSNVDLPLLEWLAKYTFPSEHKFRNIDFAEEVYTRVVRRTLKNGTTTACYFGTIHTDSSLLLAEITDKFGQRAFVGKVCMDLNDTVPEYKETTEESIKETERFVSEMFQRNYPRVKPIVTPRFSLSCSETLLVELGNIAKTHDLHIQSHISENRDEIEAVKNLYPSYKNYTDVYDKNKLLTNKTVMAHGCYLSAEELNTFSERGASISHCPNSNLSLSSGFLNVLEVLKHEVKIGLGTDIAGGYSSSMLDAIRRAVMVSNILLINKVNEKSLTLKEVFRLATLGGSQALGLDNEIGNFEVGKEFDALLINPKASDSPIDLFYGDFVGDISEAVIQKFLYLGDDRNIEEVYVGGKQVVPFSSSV
The data set can be described thus: Inhibition of guanase (Examples 10 and 11). It is filed as biochemical. To be noted: Lineweaver-Burk plot; for Ki: Tris buffer pH 7.6, 21° C., substrate guanine. The text has this: The concentration of the inhibitor ranged from 4×10^−5 M to 8×10^−5 M (Example 7), and 4.4×10^−5 M to 8.9×10^−5 M (Example 8). The concentration of the enzyme used for each assay was 0.0082 units/mL.

≈ marks a conversion by molar mass, not a printed value. Where two headings read alike, the source gives them in different places.

What is called EC90 is the concentration at which the effect reaches the 90% level. The term EC50 denotes the concentration giving half of the maximal effect. The IC50 is the concentration at which inhibition is half-maximal. In general, melting point refers to the temperature of the solid-liquid transition. The term Ki denotes the dissociation constant of the complex between target and ligand, obtained from inhibition or displacement. As a reminder, the CC50 is the concentration that lowers cell viability or growth by half.

As to `Nc1ccn([C@H]2CS[C@@H](CO)O2)c(=O)n1` [Compound 3TC, 2′,3′-dideoxy-L-3′-thiacytidine, reference compound], the EC90 in data set [1] (extracellular HBV virion DNA, read-out: EC90 Virion) is 198 ± 20 nM; in data set [1] (intracellular HBV DNA replicative intermediates, read-out: EC90 HBV RI) it was 922 ± 85 nM. Besides, the EC50 is 65 ± 10 nM in data set [1] (extracellular HBV virion DNA, read-out: EC50 Virion) and 172 ± 19 nM in data set [1] (intracellular HBV DNA replicative intermediates, read-out: EC50 HBV RI).
`O=C1c2nc(Br)n(Cc3ccccc3)c2N(Cc2ccccc2)C(=O)CN1Cc1ccccc1` [Compound 19, 3,4,7-Tribenzyl-2-bromo-4,5,7,8-tetrahydro-6H-imidazo [4,5-e][1,4]diazepine-5,8-dione]: the melting point was 174 to 176 °C. For the same compound, in data set [2], the IC50 at 7 days was found to be 88.1 µg/mL (≈ 171 µM). In addition, in data set [3], the EC50 turned out to be 8.1 µg/mL (≈ 15.7 µM); the “SI (Selectivity Index), Neutral Red Uptake” value stood at 10.9; the “SI (Selectivity Index), HFF Cells” value came out at 6.98. The half-maximal inhibitory concentration (IC50) at 72 h in data set [4] was found to be 56.5 µg/mL (≈ 110 µM).
`N=c1nc(N)c2nc[nH]c2c(N)n1` [Example 1, 4,8-Diamino-6-imino-1H-imidazo[4,5-e][1,3]diazepine]: the melting point is > 220 °C.
Still for that read-out and setting: in the case of `N=c1nc(N)c2ncn(Cc3ccccc3)c2c(N)n1` [Example 3, 4,8-Diamino-1-benzyl-6-iminoimidazo[4,5-e][1,3]diazepine] it was 202 to 204 °C.
Take `COC(=O)C1(N)NC(=O)c2[nH]cnc2NC1=O` (stereo not shown) [Example 7, 6-Amino-6-methoxycarbonyl-4,5,7,8-tetrahydro-6H-imidazo[4,5-e]-[1,4]diazepine-5,8-dione]: in data set [5], the “mode of inhibition of guanase” value is reported as “competitive inhibitors” and the affinity, expressed as Ki, was 190000 nM.
For `COC(=O)C1(OC)NC(=O)c2[nH]cnc2NC1=O` (stereo not shown) [Example 8, 6-Methoxy-6-methoxycarbonyl-4,5,7,8-tetrahydro-6H-imidazo[4,5-e][1,4]-diazepine-5,8-dione] the same measures were “competitive inhibitors” and 540000 nM.
On to `Nc1nc(O)c2ncn(COC(CO)CO)c2n1` [Ganciclovir, reference compound], for which, in data set [2], the IC50 at 7 days is > 100 µg/mL. In data set [3], the EC50 stood at 0.05 µg/mL (≈ 0.196 µM); the “SI (Selectivity Index), Neutral Red Uptake” value was >2000; the “SI (Selectivity Index), HFF Cells” value came to 800. In data set [4] (Rapidly growing HFF cells), the CC50 at 72 h is > 40 µg/mL. In data set [4], the IC50 at 72 h is 40 µg/mL (≈ 157 µM).
